inhibition, Activity and IC50 data for eight compounds are collected here from ChEMBL document CHEMBL1144180, “Phenylethyl cinnamides: a new series of alpha-glucosidase inhibitors from the leaves of Aegle marmelos” (Bioorg Med Chem Lett, 2008).

Structures are written as SMILES. The source made the active and inactive calls. The calls are words filed in the database; no cut-off is given here.

Assay [1] can be described thus: Inhibition of alpha-glucosidase at 10.0 ug/ml.
The nature of assay [2]: Inhibition of alpha-glucosidase at 2.5 ug/ml.
Assay [3] can be described thus: Inhibition of alpha-glucosidase at 5.0 ug/ml.
Assay [4] can be described thus: Inhibition of alpha-glucosidase at 1.25 ug/ml.
A short description of assay [5]: Inhibition of alpha-glucosidase.

For `COc1ccc([C@H](O)CNC(=O)c2ccccc2)cc1`, the inhibition (in general, the share of the control response that was lost under treatment) in assay [1] was 13.5%; in assay [2], 7.8%; in assay [3] it was 11.4%; in assay [4] it was 1.5%.

As for `COc1ccc([C@@H](CNC(=O)/C=C\c2ccccc2)O[C@@H]2O[C@H](CO)[C@@H](O)[C@H](O)[C@H]2O)cc1`, the inhibition in assay [1] came out at 8.8%; in assay [3] it was 3.4%. In addition, the result in assay [2] and in assay [4] was inactive.

Turning to `COc1ccc([C@H](O)CNC(=O)/C=C/c2ccccc2)cc1`, the inhibition in assay [1] worked out at 36%; in assay [2], 11.2%; in assay [3] it was 20.9%; in assay [4], 5.3%.

As to `COc1ccc([C@@H](CNC(=O)/C=C/c2ccccc2)O[C@@H]2O[C@H](CO)[C@@H](O)[C@H](O)[C@H]2O)cc1`, the inhibition is 17.6% in assay [1], 6.1% in assay [2], 11.6% in assay [3] and 4.6% in assay [4].

Turning to `CC(C)=CCOc1ccc(/C=C/NC(=O)/C=C/c2ccccc2)cc1`, the inhibition in assay [1] amounted to 30.1%; in assay [2], 8.1%; in assay [3], 13.2%; in assay [4], 1.3%.

With `COc1ccc(/C=C/NC(=O)/C=C/c2ccccc2)cc1` [ANHYDROAEGELINE], the inhibition in assay [1] worked out at 56.5%; in assay [2] it was 7.5%; in assay [3], 25.2%; in assay [4], 1.7%. 35.8 µM corresponded to half-maximal inhibition in assay [5] (IC50).

In the case of `CC(C)=CCOc1ccc(CCNC(=O)/C=C/c2ccccc2)cc1`, the inhibition is 19.7% in assay [1] and 15.9% in assay [3]. Besides, the result in assay [2] and in assay [4] was inactive.

Turning to `COc1ccc([C@@H](CNC(=O)/C=C/c2ccccc2)OC)cc1`, in assay [1], the inhibition is 12.6%. The result in assay [2], in assay [3] and in assay [4] was inactive.
